Measured values: patent US20240076394A1, “MODULATING THE IMMUNE RESPONSE USING ANTI-CD30 ANTIBODY-DRUG CONJUGATES” (Seagen Inc., priority 2020, published 2024)
“Also recorded” adds a separate entry of the source.

Experiments:
CD30+ cell lines = conditions: in vitro; cited from earlier work
[1] = tested on: xenograft models of Hodgkin disease; conditions: SCID mouse xenograft models of Hodgkin disease; cited from earlier work
[2] = tested on: CD30+ inducible T regulatory cells (iTregs); assay: In vitro depletion of CD30+ inducible T regulatory cells (flow cytometry live cell counts); format: cell-based, human; conditions: iTregs from normal donors, CD3/CD28 beads 1:4 and 10 ng/ml IL-2, 4-5 days, titration of ADC; compared to non-binding control ADC hIgG-7782; FIG. 1A
Method: The ability of the anti-CD30 antibody-drug conjugate SGN-CD30C to deplete CD30+T regulatory (Tregs) was assessed in vitro. Inducible T regulatory cells (iTregs) were differentiated from cryopreserved CD4^+ T cells of two normal donors (Cellero, Bothell, Washington, Cat #1023) in X-Vivo 15 media (Lonza, Cat #04-418Q) supplemented with 50 ng/ml TGFβ1 (R&D, cat #100-B), 50 ng/ml IL-2 (R&D, Cat #202-IL/CF) and a 1:100 dilution of Lipid Mixture 1 (Sigma, Cat #L0288-100 ml) with CD3/CD28 beads (Miltenyi, Cat #130-095-345) at a 1:20 bead:cell ratio for 6 days at 37° C. and 5% CO2, followed by 2 days resting in X-Vivo 15 media only. Differentiated iTregs were then immunophenotyped prior to in vitro cytotoxicity assays with a viability dye and fluorescently labeled anti-human CD3, CD4, CD8, CD25 and Foxp3 (Biolegend and BD Pharmingen), and analyzed on an Attune NxT Flow Cytometer (Life Technologies). Following differentiation, the iTreg populations were 38% and 53% CD25^+FoxP3^+. Inducible Tregs from 3 additional normal donors were also ordered directly from Cellero (Cat #1042). […]

[3] = tested on: CD4+CD127lowCD25+ peripheral blood Tregs (CD30+); assay: In vitro depletion of CD30+ peripheral blood T regulatory cells (flow cytometry live cell counts); format: cell-based, human; conditions: peripheral blood Tregs from 2 normal donors, CD3/CD28 beads 1:4 and 10 ng/ml IL-2, 4-5 days, titration of ADC; compared to non-binding control ADC hIgG-7782; FIG. 1B
Method: Cryopreserved inducible Tregs from 5 normal donors and CD4^+CD127^lowCD25^+ peripheral blood Tregs from 2 normal donors (Cellero and Stem Cell Technologies) were washed and resuspended in RPMI 1640 media containing 10% FBS and put into culture with CD3/CD28 beads at a 1:4 bead:cell ratio and 10 ng/ml IL-2 for 4-5 days in a 96-well round bottom plate at 37° C. and 5% CO2 in a titration of cAC10-7782 or non-specific control hIgG-7782. At the end of the incubation, cells were washed and stained with a Zombie Aqua viability dye and CD30 PE (Biolegend), and both total and CD30^+ live cell counts were determined using an Attune Nxt Flow cytometer. Untreated inducible Tregs were 37-80% CD30^+ and peripheral Tregs were 33-68% CD30^+ at the conclusion of the assay.
Cell counts are shown as the percent of untreated control.

Molecule: cAC10: chimeric IgG1 monoclonal antibody that specifically binds CD30
- growth arrest of CD30+ cell lines (CD30+ cell lines): induces growth arrest
- antitumor activity [1]: pronounced antitumor activity

B1: SGN-CD30C: antibody-drug conjugate of Formula (IC): L is anti-CD30 antibody brentuximab, y is 1, z is 8, p is 8 (conjugate)
VH: QIQLQQSGPEVVKPGASVKISCKASGYTFTDYYITWVKQKPGQGLEWIGWIYPGSGNTKYNEKFKGKATLTVDTSSSTAFMQLSSLTSEDTAVYFCANYGNYWFAYWGQGTQVTVSA
VL: DIVLTQSPASLAVSLGQRATISCKASQSVDFDGDSYMNWYQQKPGQPPKVLIYAASNLESGIPARFSGSGSGTDFTLNIHPVEEEDAATYYCQQSNEDPWTFGGGTKLEIK
- total CD30+ iTreg count (percent of untreated control) [2]: depleted; also recorded: dose-dependent reduction
- peripheral blood CD30+ Treg count (percent of untreated control) [3]: depleted; also recorded: dose-dependent reduction
